Where a name gives a salt, the structure may show the parent alone.
Assays:
[1] = tested on: Sprague Dawley rats with unilateral 6-OHDA lesions; assay: Induction of dyskinesia model with naive 6-OHDA rats (AIMS); assay type: in vivo, rat; settings: once daily s.c. for 14 days, scored up to day 12
Description: Twenty male Sprague Dawley rats with unilateral 6-OHDA lesions were used to test induction of dyskinesia by compound 10 (administered subcutaneously; n=7; group 1) compared to L-DOPA/benserazide (6 mg/kg / 15 mg/kg subcutaneously; n=7; group 2) and apomorphine (1 mg/kg subcutaneously; n=6; group 3). Benserazide is a DOPA decarboxylase inhibitor which is unable to cross the blood-brain barrier; it is used to prevent metabolism of L-DOPA to dopamine outside the brain. Three weeks after 6-OHDA surgery, the animals were tested for their rotation response induced by 2.5 mg/kg amphetamine, which induces ipsilateral circling (amphetamine increases the level dopamine in the brain via the intact neurons on the unlesioned side causing the animals to rotate in the opposite direction as compared to their response to direct agonists such as L-DOPA and apomorphine that act predominantly on the lesioned side of the brain). […] Rats where then randomly allocated to the three treatment groups balancing the groups for the animals' rotation response on amphetamine.
Rats received drug for 14 consecutive days and were scored on days 1, 2, 3, 4, 5, 8, 10 and 12. […] Following this experiment all rats were given subcutaneous injections of compound 10 from day 15-19 in order to determine how Example I influenced the severity of dyskinesia seen in the apomorphine and L-DOPA groups. Dykinesia scoring was performed on day 19 of the experiment (corresponding to 5 days on compound 10).

[2] = tested on: rats with unilateral 6-OHDA lesions; assay: 6-OHDA rat model (rotation response); assay type: in vivo; settings: rotation in unilateral 6-OHDA rats; for D1/D2 ratio: MED and MED to overcome Nemonapride block
Source text: Dopamine agonists can have activity at either the D1 receptors, the D2 receptors, or both. The rotation response in rats with unilateral 6-OHDA lesions can be used to assess compounds for their ability to stimulate both receptor types and induce rotation (Ungerstedt and Arbuthnott, Brain Res., 1970, 24, 485; Setler, et al. Eur. J. Pharmacol., 1978, 50(4), 419; and Ungerstedt, et al. “Advances in Dopamine Research” (Kohsaka, Ed.), Pergamon Press, 1982, Oxford, p. 219). 6-OHDA (6-hydroxydopamine) is a neurotoxin used by neurobiologists to selectively kill dopaminergic neurons at the site of injection in the brain in experimental animals. In the 6-OHDA model, the nigrostraital dopamine cells are destroyed on one side of the brain (unilateral) by injecting 6-OHDA into the median forebrain bundle, located in front of the substantia nigra. This unilateral injection combined with stimulation by dopamine agonists such as apomorphine will induce rotation behaviour as only one side of the brain is stimulated. Experiments consist of determining a minimum effective dose (MED) to induce rotation for the compound in question. Once a MED has been determined, a second experiment is performed to determine the MED of the compound to overcome Nemonapride block (MEDNemonapride). Nemonapride is a D2 antagonist that blocks the D2 receptor, therefore any observed rotations would be dependent upon activity at the D1 receptor. Finally, once the MEDNemonapride is known a third experiment is run using the MEDNemonapride dose and observing the effect of the D1 antagonist, SCH 23390 alone, the D2 antagonist, Nemonapride alone and finally, the effect of combined treatment with SCH 23390 and Nemonapride. […] This model was validated using apomorphine as the proof-of-principle compound for mixed D1/D2 agonists.
Dopamine agonists can have activity at either the D1 receptors, the D2 receptors, or both. The rotation response in rats with unilateral 6-OHDA lesions can be used to assess compounds for their ability to stimulate both receptor types and induce rotation (Ungerstedt and Arbuthnott, Brain Res. 24, 485 (1970); Setler, et al., Eur. J. Pharmacol., 50(4), 419 (1978); and Ungerstedt, et al., “Advances in Dopamine Research” (Kohsaka, Ed.), Pergamon Press, 1982, Oxford, p. 219). 6-OHDA (6-hydroxydopamine) is a neurotoxin used by neurobiologists to selectively kill dopaminergic neurons at the site of injection in the brain in experimental animals. In the 6-OHDA model the nigrostraital dopamine cells are destroyed on one side of the brain (unilateral) by injecting 6-OHDA into the median forebrain bundle, located in front of the substantia nigra. […] Once a MED has been determined, a second experiment is performed to determine the MED of the compound to overcome Nemonapride block (MEDNemonapride). […]

MPTP treated marmosets = assay: Anti-Parkinsonian effects in MPTP-treated common marmosets; assay type: in vivo, common marmoset; settings: dosed p.o.
Description: (§1) The experiments were conducted using 6 MPTP treated marmosets (2.0 mg/kg daily for up to 5 consecutive days dissolved in sterile 0.9% saline solution). All the animals had previously been treated with L-DOPA (12.5 mg/kg p.o., plus carbidopa 12.5 mg/kg p.o.) administered daily for up to 30 days in order to induce dyskinesia. […] Domperidone was administered 60 min before any of the test compounds. Domperidone is an anti-dopaminergic drug that suppresses nausea and vomiting. Locomotor Activity was assessed using test cages that are comprised of 8 photo-electric switches comprised of 8 infra-red beams which are strategically placed in the cage and interruption of a beam is recorded as one count. […] The assessment of motor disability was performed by a trained observer blinded to the treatment.
as §1, with “antidopaminergic” for “anti-dopaminergic”
as §1, with “compounds.” for “compounds. Domperidone is an anti-dopaminergic drug that suppresses nausea and vomiting.”

[3] = tested on: mouse model of severe dopamine depletion; assay: Superiority model (MPTP mice treated with AMPT, motility); assay type: in vivo; settings: AMPT 250 mg/kg s.c., last 1 hour of recorded data
Description: On the day of the experiment, mice were treated with AMPT (250 mg/kg subcutaneously) and then returned to their home cages for 1.5 hours after which they were placed in individual cages in the motility unit. AMPT (alpha-methyl-p-tyrosine) is a drug that temporarily reduces brain catecholamine activity (in this case especially dopamine levels). […] Various dopaminergic compounds were tested for their ability to reverse the motility deficits produced in this model. […] Benserazide is a DOPA decarboxylase inhibitor which is unable to cross the blood-brain barrier; it is used to prevent metabolism of L-DOPA to dopamine outside the brain.
On the day of the experiment, mice were treated with AMPT (250 mg/kg subcutaneously) and then returned to their home cages for 1.5 hours after which they are placed in individual cages in the motility unit. AMPT (alpha-methyl-p-tyrosine) is a drug that temporarily reduces brain catecholamine activity (in this case especially dopamine levels). […] Various dopaminergic compounds are tested for their ability to reverse the motility deficits produced in this model. […] Benserazide is a DOPA decarboxylase inhibitor which is unable to cross the blood-brain barrier; it is used to prevent metabolism of L-DOPA to dopamine outside the brain.
On the day of the experiment, mice were treated with AMPT (250 mg/kg subcutaneously) and then returned to their home cages for 1.5 hours after which they were placed in individual cages in the motility unit. AMPT (alpha-methyl-p-tyrosine) is a drug that temporarily reduces brain catecholamine activity (in this case especially dopamine levels). […] Various dopaminergic compounds were tested for their ability to reverse the motility deficits produced in this model. […] Benserazide is a DOPA decarboxylase inhibitor which is unable to cross the blood-brain barrier; it was used to prevent metabolism of L-DOPA to dopamine outside the brain.

[4] = Conversion into the active metabolite upon in-vivo administration
[5] = tested on: 'parkinsonian' rats (6-OHDA rats); assay: Dyskinesia rat model, Example 3 (AIMs, test drug vs. L-DOPA/benserazide); assay type: in vivo
Description: A rat dyskinesia model reported in the literature (Lundblad, et al., Eur. J Neurosci., 2002, 15, 120) was used to examine the effects of the active metabolite vs. L-DOPA/benserazide with respect to dyskinesias that were assessed as abnormal involuntary movements (AIMs) in ‘parkinsonian’ rats.
0-180 min. Animals were scored for dyskinesias.
(§2) At days 1, 3, 5, 8 and 12, animals were scored according to AIM-scoring by recording dyskinesias using the Abnormal Involuntary Movement Scale (AIMS) as described previously (Lundblad, et al., Eur. J Neurosci., 2002, 15, 120). Days 15-26: Group A animals were treated with the test drug (as group B) instead of L-DOPA/benserazide. Day 15, 16, 17, 19, 22, 24 and 26: Animals scored according AIM-scoring.

[6] = tested on: rats with unilateral 6-OHDA lesions; assay: Dyskinesia profile in rats with unilateral 6-OHDA lesions (summary statements); assay type: in vivo, rat; settings: for induction of dyskinesias compared with L-DOPA and apomorphine / reduction of L-DOPA induced dyskinesias compared with D2 agonists (pramipexole): rats with unilateral 6-OHDA lesions
'parkinsonian' rats = assay: Dyskinesia rat model, Example 4 (AIMs, Compound 12 vs. L-DOPA/Benserazide); assay type: in vivo
Description: A rat dyskinesia model reported in the literature (Lundblad, et al., Eur. J Neurosci., 2002, 15, 120) was used to examine the effects of Compound 12 vs. L-DOPA/Benserazide with respect to dyskinesias that were assessed as abnormal involuntary movements (AIMs) in ‘parkinsonian’ rats.
Throughout the study animals received L-DOPA/Benserazide (6 mg/kg and 15 mg/kg subcutaneous) or Compound 12 (group B) once daily at t=−20 min. 0-180 min. Animals were scored for dyskinesias. Days 1-14: All animals were dosed with L-DOPA/Benserazide (group A) or Compound 12 (group B).
as §2, with “previously.” for “previously (Lundblad, et al., Eur. J Neurosci., 2002, 15, 120).”, “Compound 12” for “the test drug”, “L-DOPA/Benserazide.” for “L-DOPA/benserazide.”

Row | SMILES | dyskinesia scores (AIMS) [1] | locomotor activity and motor disability (MPTP treated marmosets) | reversal of motility deficits / restoration of locomotion [3] | D1/D2 ratio [2] | duration of reversal of motor disability compared to L-DOPA (MPTP treated marmosets) | efficacy compared to L-DOPA (MPTP treated marmosets) | conversion into active metabolite (Compound 10) [4] | induction of dyskinesias compared with L-DOPA and apomorphine [6] | reduction of L-DOPA induced dyskinesias compared with D2 agonists (pramipexole) [6] | also measured
1 | CCCN1CCC[C@@H]2Cc3c(ccc(O)c3O)C[C@H]21 [Compound 10, (4aR,10aR)-1-Propyl-1,2,3,4,4a,5,10,10a-octahydro-benzo[g]quinoline-6,7-diol hydrobromide] | about 30 | – | – | – | – | – | – | – | – | duration of action [2]: ca. 18 h
2 | N[C@@H](Cc1ccc(O)c(O)c1)C(=O)O [L-DOPA] | about 70 | increased locomotor activity and reversed motor disability | able to reverse motility deficits | – | – | – | – | – | – | –
3 | CCCN(CCc1cccs1)[C@H]1CCc2c(O)cccc2C1 [rotigotine, reference compound] | – | – | – | – | – | – | – | – | – | D1 component [2]: could not be observed
4 | CN1CCc2cccc3c2[C@H]1Cc1ccc(O)c(O)c1-3 [apomorphine] | about 70 | – | restored locomotion | about 3 | – | – | – | – | – | reversal of motility deficits / restoration of locomotion ([3]; listed as Apomorphine): able to reverse motility deficits
5 | CCCN1CCC[C@@H]2Cc3c(ccc4c3OCO4)C[C@H]21 [Compound 11, (6aR,10aR)-7-n-Propyl-6,6a,7,8,9,10,10a,11-octahydro-1,3-dioxa-7-aza-cyclopenta[a]anthracene hydrochloride] | – | dose-related increases in locomotor activity and reversal of motor disability | – | about 2 | prolonged reversal of motor disability | as efficacious as L-DOPA | Convert into the Catechol-Containing Active Metabolite | induce less dyskinesias than L-DOPA and apomorphine | reduce L-DOPA induced dyskinesias more effectively than D2 agonists | dyskinesia scores (AIMS) ([5]; after eight days of once daily treatment, constant until day 12): 2-4; induction of dyskinesia compared with L-DOPA ([5]; days 1-14): significantly less dyskinesia than L-DOPA; reduction of the dyskinesias induced by L-DOPA ([5]; group A shifted from L-dopa/benserazide to the test drug, days 15-26): able to reduce the dyskinesias induced by L-DOPA; reversal of dyskinesias induced by L-DOPA/benserazide and apomorphine ([6]; rats lesioned with 6-OHDA): reversed dyskinesias
6 | CCCN1CCC[C@@H]2CC3=C(CCCC3=O)C[C@H]21 [Compound 12, (4aR,10aR)-1-n-propyl-2,3,4,4a,5,7,8,9,10,10a-decahydro-1H-benzo[g]quinolin-6-one] | – | dose-related increases in locomotor activity and reversal of motor disability | – | – | prolonged reversal of motor disability | as efficacious as L-DOPA | Convert into the Catechol-Containing Active Metabolite | induces less dyskinesias than L-DOPA and apomorphine | reduces L-DOPA induced dyskinesias more effectively than D2 agonists | dyskinesia scores (AIMS) ('parkinsonian' rats; after eight days of once daily treatment): 10-25; dyskinesia scores (AIMS) after shifting group A from L-DOPA/benserazide ('parkinsonian' rats; compound 12 for 10 days after L-DOPA/benserazide): 30-35; induction of dyskinesia compared with L-DOPA ('parkinsonian' rats; days 1-14): significantly less dyskinesia than L-DOPA; reduction of the dyskinesias induced by L-DOPA ('parkinsonian' rats; group A shifted to compound 12, days 15-26): able to reduce the dyskinesias induced by L-DOPA
